Results on six compounds are retold here after patent US11485735B2, “Selective CDK4/6 inhibitor and preparation thereof” (Wuxi Shuangliang Biotechnology Co., Ltd., priority 2019, dated 2022).

One assay concerns the target T1, CDK6/CyclinD3 (Homo sapiens, UniProt Q00534).
T1 construct: purchased Wuxi Biortus Biosciences Co. Ltd
The assay can be described thus: In-vitro kinase inhibitory activity, CDK6/CyclinD3 (Caliper EZ Reader II mobility shift). The conditions noted are these: CDK6/CyclinD3 20 nM, ATP 2 mM, Peptide 1 μM, 27° C., 120 min; read-out: IC50 (half maximal inhibitory concentration, nM) CDK6. Format: biochemical. An outline of the steps:
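Compound was preincubated 10 min with CDK6/CyclinD3, then peptide substrate plus ATP was added and the reaction ran 120 min at 27° C. before EDTA stop. Substrate and phosphorylated product were separated by microfluidic mobility shift, at least two replicates. IC50 from non-linear regression of dose-response curves.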

The subject of assay [1] is human breast cancer MCF-7 cells. The assay can be described thus: Growth inhibition of tumor cells cultured in vitro, CellTiter-Glo, MCF-7. To be noted: for IC50: MCF-7, 72 h, CellTiter-Glo; for inhibitory effect on human breast cancer MCF-7 cells (in words): summary of the table. Format: cell-based. An excerpt:
Test drugs: Compounds of the present disclosure. Tumor cell strains: human colon cancer COLO205 cells and human breast cancer MCF-7 cells.
The growth inhibitory effects on human tumor cells COLO205 and MCF-7 cultured in vitro were observed by using a CellTiter-Glo Luminescent Cell Viability Assay Kit (Promega, Cat. No. G7572). Human tumor cells COLO205 and MCF-7 were both purchased from the American Type Culture Collection.
CellTiter-Glo Luminescent Cell Viability Assay: The previous cell culture medium was discarded, and the tumor cells were rinsed twice with PBS. An appropriate amount of trypsin (VWR, Cat. No. 0458-25G) was added to digest the tumor cells until most of the cells turned round and were detached from the wall. The trypsin digestion was terminated by adding an RPMI-1640 medium (COLO205; Gibco, Cat. No. A10491-01) containing 10% fetal bovine serum (Hyclone, Cat. No. SV30160.03) and MEM medium (MCF-7; Gibco, Cat. No. 10370-021) containing 10% fetal bovine serum and 0.01 mg/mL insulin, and the cells were gently pipetted with a pipette to completely suspend the tumor cells. After cell counting, a tumor cell suspension was prepared using a complete culture medium and the final concentration was 6.7×10^4 cells/mL. 90 μL of the tumor cell suspension was seeded in each well of a 96-well culture plate (6000 cells/well). The plate was then placed in an incubator with 5% CO2 at 37° C. and incubated for 24 h. A test drug was added by using an Agilent Bravo Automated Liquid Handling Platform, and 10 μL of the sample was added in each well. The assay was conducted in triplicate for each group. A compound of the present disclosure was dissolved in DMSO (BioRoYee, Cat. No. AF0231), and then the resulting solution was diluted to 10 μM/L, 3.33 μM/L, 1.11 μM/L, 0.37 μM/L, 0.123 μM/L, 0.041 μM/L, 0.0137 μM/L, 0.0046 μM/L, and 0.0015 μM/L with the culture medium. The concentration of DMSO was lower than 0.1%, and a culture medium containing 0.1% DMSO was added to the well which was set as a vehicle control group. The 96-well plate was placed in an incubator with 5% CO2 at 37° C. and incubated for 72 h. The 96-well plate to be tested was equilibrated at room temperature for 30 min, and 100 μL of Cell Titer-Glo reagent was added to each well. The contents of each well were mixed in an orbital shaker for 2 min to induce cell lysis, and the plate was incubated at room temperature for 10 min to achieve a constant value of fluorescent intensity. Finally, the chemiluminescence intensity was detected by TECAN M1000. Data were processed with Graphpad Prism 6.0 software. The growth curve of the cells was plotted. The cell growth inhibition rate of a drug was calculated, and the half maximal inhibitory concentration (IC50) of the drug was determined.

The next assay deals with T2, CDK4/CyclinD3 (Homo sapiens, UniProt P11802).
T2 construct: purchased Wuxi Biortus Biosciences Co. Ltd
The assay can be described thus: In-vitro kinase inhibitory activity, CDK4/CyclinD3 (Caliper EZ Reader II mobility shift). Format: biochemical. The conditions noted are these: CDK4/CyclinD3 20 nM, ATP 2 mM, Peptide 1 μM, 27° C., 180 min; read-out: IC50 (half maximal inhibitory concentration, nM) CDK4. Put shortly: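 Compound was preincubated 10 min with CDK4/CyclinD3 in Tris pH 8.0 with 5 mM MgCl2, then peptide substrate and ATP were added for 180 min at 27 °C, and the reaction was stopped with EDTA. Substrate and product were separated by mobility shift. IC50 comes from non-linear dose-response fits, with at least two replicates.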

A further assay deals with T3, CRBN (Homo sapiens, UniProt Q96SW2).
T3 construct: purchased Wuxi Biortus Biosciences Co. Ltd
The assay can be described thus: In-vitro inhibition assay of CRBN activity (fluorescence polarization, Cy5-Thalidomide). In kind it is binding. The conditions noted are these: Cy5-Thalidomide 10 nM, CRBN 180 nM, 27° C., 60 min. The method, then:
The final volume for assay was 20 μL, and the reaction temperature was 27° C. CRBN was produced by Wuxi Biortus Biosciences Co. Ltd. The concentration of the kinase was determined by the optimization experiment, and the kinase was diluted with an assay buffer (50 mM Tris, pH 7.5, 100 mM NaCl, and 0.01% Pluronic acid) to obtain a corresponding kinase solution (2× concentration). The compound was dissolved in dimethyl sulfoxide (DMSO) to reach a concentration of 10 mM. […] 5 μL of the test compound solution was mixed with 5 μL of the substrate solution, and 10 μL of the kinase solution was added to the mixture. The mixture was incubated at 27° C. for 60 min. Each assay was conducted in at least two replicates. […].
The final concentrations of the reagents in the assay were as follows. […] The data of fluorescence polarization assay were read on TECAN infinite M1000. Data were calculated by using GraphPad Prism version 6.0, and IC50 values were obtained by adjusting the non-linear regression models of the dose response curves.

The test system of assay [2] is human colon cancer COLO205 cells. The assay can be described thus: Growth inhibition of tumor cells cultured in vitro, CellTiter-Glo, COLO205. Format: cell-based. To be noted: for IC50: COLO205, 72 h, CellTiter-Glo; for inhibitory effect on human colon cancer COLO205 cells (in words): summary of the table. Put shortly:
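Cells were seeded at 6000/well, COLO205 in RPMI-1640 with 10% FBS and MCF-7 in MEM with 10% FBS plus 0.01 mg/mL insulin, and grown 24 h before dosing. Compound dilutions in medium (10 to 0.0015 μM/L before addition, DMSO <0.1%) were tested in triplicate for 72 h at 37° C. IC50 was derived from CellTiter-Glo luminescence.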

Another assay addresses CDK2 (Homo sapiens, UniProt P24941). The assay can be described thus: In-vitro kinase inhibitory activity, CDK2 (selectivity). In kind it is biochemical. The conditions noted are these: read-out: IC50 (half maximal inhibitory concentration, nM) CDK2.
Another assay concerns the target CDK9 (Homo sapiens, UniProt P50750). The assay can be described thus: In-vitro kinase inhibitory activity, CDK9 (selectivity). To be noted: read-out: IC50 (half maximal inhibitory concentration, nM) CDK9. In kind it is biochemical.

Entries after “also recorded” stand apart in the source; their conditions may differ. A value given as a limit tells only on which side of the number the result lay.

T3 sequence (Q96SW2 whole entry, species assumed): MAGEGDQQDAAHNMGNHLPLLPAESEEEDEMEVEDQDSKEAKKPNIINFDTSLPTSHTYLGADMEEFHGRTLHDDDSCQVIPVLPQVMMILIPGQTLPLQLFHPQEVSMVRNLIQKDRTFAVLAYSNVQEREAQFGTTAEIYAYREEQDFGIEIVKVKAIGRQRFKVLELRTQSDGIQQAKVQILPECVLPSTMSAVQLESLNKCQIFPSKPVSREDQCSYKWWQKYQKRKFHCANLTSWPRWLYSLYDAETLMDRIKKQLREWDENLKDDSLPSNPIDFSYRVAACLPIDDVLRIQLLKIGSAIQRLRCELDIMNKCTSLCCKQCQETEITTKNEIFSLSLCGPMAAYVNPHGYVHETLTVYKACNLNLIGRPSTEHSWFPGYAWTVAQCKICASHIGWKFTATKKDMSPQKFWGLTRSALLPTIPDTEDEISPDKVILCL
T1 sequence (Q00534 whole entry, species assumed): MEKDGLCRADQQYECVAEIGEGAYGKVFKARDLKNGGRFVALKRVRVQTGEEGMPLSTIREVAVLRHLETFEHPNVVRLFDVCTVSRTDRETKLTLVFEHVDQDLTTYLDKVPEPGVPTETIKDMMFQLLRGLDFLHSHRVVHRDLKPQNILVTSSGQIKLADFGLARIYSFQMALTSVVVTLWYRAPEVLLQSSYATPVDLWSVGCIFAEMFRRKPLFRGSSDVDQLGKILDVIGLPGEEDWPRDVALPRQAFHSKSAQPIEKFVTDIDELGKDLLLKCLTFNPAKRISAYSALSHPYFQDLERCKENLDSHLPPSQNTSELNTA
T1 sequence (P30281 whole entry partner, species assumed): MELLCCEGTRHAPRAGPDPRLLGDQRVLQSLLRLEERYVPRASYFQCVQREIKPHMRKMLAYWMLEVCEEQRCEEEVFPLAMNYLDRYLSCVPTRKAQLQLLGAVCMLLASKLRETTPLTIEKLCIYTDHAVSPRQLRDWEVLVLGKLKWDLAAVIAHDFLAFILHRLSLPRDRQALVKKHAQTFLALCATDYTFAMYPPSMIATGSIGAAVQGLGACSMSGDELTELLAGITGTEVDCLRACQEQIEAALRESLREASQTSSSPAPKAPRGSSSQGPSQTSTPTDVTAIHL
T2 sequence (P11802 whole entry, species assumed): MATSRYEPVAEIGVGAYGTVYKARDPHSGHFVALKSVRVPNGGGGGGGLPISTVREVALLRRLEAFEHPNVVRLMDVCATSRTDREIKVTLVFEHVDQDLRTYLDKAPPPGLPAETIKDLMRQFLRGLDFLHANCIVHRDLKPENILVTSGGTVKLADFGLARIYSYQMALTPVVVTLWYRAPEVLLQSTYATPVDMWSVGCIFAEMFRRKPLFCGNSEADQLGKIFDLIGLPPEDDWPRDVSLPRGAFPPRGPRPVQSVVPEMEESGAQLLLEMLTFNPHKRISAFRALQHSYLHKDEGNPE
T2 sequence (P30281 whole entry partner, species assumed): as the sequence (P30281 whole entry partner, species assumed) above
Chain of CDK9 (P50750 whole entry, species assumed): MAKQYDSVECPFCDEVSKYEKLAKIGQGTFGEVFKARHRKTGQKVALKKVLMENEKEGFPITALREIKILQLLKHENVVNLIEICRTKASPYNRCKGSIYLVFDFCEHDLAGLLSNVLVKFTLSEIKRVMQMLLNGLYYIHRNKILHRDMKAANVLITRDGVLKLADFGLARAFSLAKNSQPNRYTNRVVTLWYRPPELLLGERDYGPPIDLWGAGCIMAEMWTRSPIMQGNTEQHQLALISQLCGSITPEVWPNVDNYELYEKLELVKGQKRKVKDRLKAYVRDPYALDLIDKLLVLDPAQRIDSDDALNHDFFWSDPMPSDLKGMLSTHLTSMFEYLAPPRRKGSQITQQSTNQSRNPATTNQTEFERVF
Chain of CDK9 (O60563 whole entry partner, species assumed): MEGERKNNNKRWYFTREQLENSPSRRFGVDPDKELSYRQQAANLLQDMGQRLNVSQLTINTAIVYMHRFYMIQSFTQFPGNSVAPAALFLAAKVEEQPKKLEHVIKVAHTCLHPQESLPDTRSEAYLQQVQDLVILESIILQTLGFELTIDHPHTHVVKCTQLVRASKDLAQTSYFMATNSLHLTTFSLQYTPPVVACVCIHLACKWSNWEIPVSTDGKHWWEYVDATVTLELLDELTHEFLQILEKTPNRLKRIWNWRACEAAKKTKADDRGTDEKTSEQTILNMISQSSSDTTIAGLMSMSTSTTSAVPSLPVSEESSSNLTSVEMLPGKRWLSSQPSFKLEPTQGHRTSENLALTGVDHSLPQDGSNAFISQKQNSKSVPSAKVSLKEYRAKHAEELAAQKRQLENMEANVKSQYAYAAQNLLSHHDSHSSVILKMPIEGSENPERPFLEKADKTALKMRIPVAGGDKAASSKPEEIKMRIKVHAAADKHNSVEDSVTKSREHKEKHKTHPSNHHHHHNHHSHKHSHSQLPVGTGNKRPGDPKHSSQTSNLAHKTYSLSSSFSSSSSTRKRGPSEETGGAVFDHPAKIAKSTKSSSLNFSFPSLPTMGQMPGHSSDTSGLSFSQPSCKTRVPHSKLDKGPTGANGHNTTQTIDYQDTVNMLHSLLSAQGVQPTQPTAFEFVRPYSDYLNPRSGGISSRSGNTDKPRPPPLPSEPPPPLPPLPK

As for `CC(=O)c1c(C)c2cnc(Nc3ccc(N4CCN(CCN5CCN(c6ccc7c(c6)CN(C6CCC(=O)NC6=O)C7=O)CC5)CC4)cn3)nc2n(C2CCCC2)c1=O` (single isomer, unassigned) [Compound 1, 3-(5-(4-(2-(4-(6-((6-acetyl-8-cyclopentyl-5-methyl-7-oxo-7,8-dihydropyrido[2,3-d]pyrimidin-2-yl)amino)pyridin-3-yl)piperazin-1-yl)ethyl)piperazin-1-yl)-1-oxoisoindolin-2-yl)piperidine-2,6-dione], the IC50 is 21.3 nM at CDK6/CyclinD3; greater than 10000 nM in assay [1] (Homo sapiens, MCF7, 72 h); 38.8 nM at CDK4/CyclinD3; 3000 nM at CRBN; 45.7 nM in assay [2] (Homo sapiens, COLO 205, 72 h); greater than 10000 nM on CDK2. Further, the IC50 on CDK9 worked out at 4180 nM. In assay [2], the “inhibitory effect on human colon cancer COLO205 cells (in words)” value is “relatively good inhibitory effects”.
Turning to `CC(=O)c1c(C)c2cnc(Nc3ccc(N4CCN(CCN5CCN(c6ccc7c(c6)CN(C6CCC(=O)NC6=O)C7=O)CC5)CC4)cn3)nc2n(C2CCCC2)c1=O.Cl.Cl` (single isomer, unassigned) [Compound 2, 3-(5-(4-(2-(4-(6-((6-acetyl-8-cyclopentyl-5-methyl-7-oxo-7,8-dihydropyrido[2,3-d]pyrimidin-2-yl)amino)pyridin-3-yl)piperazin-1-yl)ethyl)piperazin-1-yl)-1-oxoisoindolin-2-yl)piperidine-2,6-dione dihydrochloride], the IC50 is 22 nM on CDK6/CyclinD3; greater than 10000 nM in assay [1]; 36.8 nM on CDK4/CyclinD3; 3000 nM against CRBN; 25.5 nM in assay [2] (dihydrochloride); greater than 10000 nM at CDK2. Besides, the IC50 at CDK9 was 8710 nM. Besides, the “inhibitory effect on human colon cancer COLO205 cells (in words)” value in assay [2] (dihydrochloride) was “relatively good inhibitory effects; also recorded: the best inhibitory effect”.
As to `CC(=O)c1c(C)c2cnc(Nc3ccc(N4CCN(CCN5CCC(CN6CCN(c7ccc8c(c7)CN(C7CCC(=O)NC7=O)C8=O)CC6)CC5)CC4)cn3)nc2n(C2CCCC2)c1=O.Cl.Cl.Cl` (single isomer, unassigned) [Compound 4, 3-(5-(4-((1-(2-(4-(6-((6-acetyl-8-cyclopentyl-5-methyl-7-oxo-7,8-dihydropyrido[2,3-d]pyrimidin-2-yl)amino)pyridin-3-yl)piperazin-1-yl)ethyl)piperidin-4-yl)methyl)piperazin-1-yl)-1-oxoisoindolin-2-yl)piperidine-2,6-dione trihydrochloride], the IC50 on CDK6/CyclinD3 was 9.7 nM; in assay [1] (Homo sapiens, MCF7, 72 h), 50.5 nM; at CDK4/CyclinD3, 10.7 nM; on CRBN, 2080 nM; in assay [2] (Homo sapiens, COLO 205, 72 h), 69.2 nM; on CDK2, greater than 10000 nM. At CDK9, the IC50 was found to be 8640 nM. The “inhibitory effect on human breast cancer MCF-7 cells (in words)” value in assay [1] was “relatively good inhibitory effects”. Further, in assay [2], the “inhibitory effect on human colon cancer COLO205 cells (in words)” value is “relatively good inhibitory effects”.
With `CC(=O)c1c(C)c2cnc(Nc3ccc(N4CCN(CCCCN5CCC(CN6CCN(c7ccc8c(c7)CN(C7CCC(=O)NC7=O)C8=O)CC6)CC5)CC4)cn3)nc2n(C2CCCC2)c1=O` (stereo not shown) [Compound 5, 3-(5-(4-((1-(4-(4-(6-((6-acetyl-8-cyclopentyl-5-methyl-7-oxo-7,8-dihydropyrido[2,3-d]pyrimidin-2-yl)amino)pyridin-3-yl)piperazin-1-yl)butyl)piperidin-4-yl)methyl)piperazin-1-yl)-1-oxoisoindolin-2-yl)piperidine-2,6-dione], the IC50 at CDK6/CyclinD3 is 6.6 nM; in assay [1] (Homo sapiens, MCF7, 72 h), 30.4 nM; at CDK4/CyclinD3, 10 nM; on CRBN, 5280 nM; in assay [2] (Homo sapiens, COLO 205, 72 h), 291 nM; at CDK2, 9910 nM. The IC50 on CDK9 worked out at 5470 nM. Further, the “inhibitory effect on human breast cancer MCF-7 cells (in words)” value in assay [1] is on record as “relatively good inhibitory effects”.
In the case of `CC(=O)c1c(C)c2cnc(Nc3ccc(N4CCN(CC(=O)N5CCC(C(=O)N6CCN(c7ccc8c(c7)CN([C@H]7CCC(=O)NC7=O)C8=O)CC6)CC5)CC4)cn3)nc2n(C2CCCC2)c1=O` [Compound 7, (S)-3-(5-(4-(1-(2-(4-(6-((6-acetyl-8-cyclopentyl-5-methyl-7-oxo-7,8-dihydropyrido[2,3-d]pyrimidin-2-yl)amino)pyridin-3-yl)piperazin-1-yl)acetyl)piperidin-4-carbonyl)piperazin-1-yl)-1-oxoisoindolin-2-yl)piperidine-2,6-dione], the IC50 was determined as 30 nM on CDK6/CyclinD3; 54.7 nM at CDK4/CyclinD3; 1420 nM at CRBN; 7480 nM on CDK2; 9920 nM on CDK9.
For the compound `CC(=O)c1c(C)c2cnc(Nc3ccc(N4CCN(CCN5CCC(C(=O)N6CCN(c7ccc8c(c7)CN([C@H]7CCC(=O)NC7=O)C8=O)CC6)CC5)CC4)cn3)nc2n(C2CCCC2)c1=O` [Compound 8, (S)-3-(5-(4-(1-(2-(4-(6-((6-acetyl-8-cyclopentyl-5-methyl-7-oxo-7,8-dihydropyrido[2,3-d]pyrimidin-2-yl)amino)pyridin-3-yl)piperazin-1-yl)ethyl)piperidin-4-carbonyl)piperazin-1-yl)-1-oxoisoindolin-2-yl)piperidine-2,6-dione], the IC50 worked out at 16.1 nM on CDK6/CyclinD3; 821 nM in assay [1] (Homo sapiens, MCF7, 72 h); 19.9 nM at CDK4/CyclinD3; 1210 nM against CRBN; 96.2 nM in assay [2] (Homo sapiens, COLO 205, 72 h); 9000 nM on CDK2. In addition, the IC50 on CDK9 was 3810 nM. Moreover, the “inhibitory effect on human colon cancer COLO205 cells (in words)” value in assay [2] is on record as “relatively good inhibitory effects”.
